# Source: patent US20210204544A1, “AGROCHEMICAL FORMULATIONS CONTAINING A POLYMERIC CRYSTAL GROWTH INHIBITOR” (priority 2018, published 2021)
# Experiment: Crystal growth of micronized fluopyram crystals suspended in water, with or without polymeric crystal growth inhibitor, on accelerated aging (FIG. 1)
# Type: physicochemical
# Conditions: 54° C.; observed at 4 days, 35 days, then additional 2 weeks cycling -20° C./40° C.; Rhodoline 111 at 3% w/w, HPMC at 0.2% w/w
# Description: FIG. 1 depicts the effect of polymeric crystal growth inhibitor on active ingredient while suspended in water. […] Polymeric crystal growth inhibitors were evaluated by suspending micronized fluopyram active ingredient crystal in water.
structure (smiles),measurement,value
"O=C(NCCc1ncc(C(F)(F)F)cc1Cl)c1ccccc1C(F)(F)F [fluopyram, N-[2-[3-chloro-5-(trifluoromethyl)pyridin-2-yl]ethyl]-2-(trifluoromethyl)benzamide]",crystal growth of fluopyram crystals suspended in water,severe needle-shaped crystal growth
